Measurements reported in patent US10081606B2, “Heteroaryl compounds and uses thereof” (Celgene CAR LLC, priority 2010, dated 2018).
Like-named read-outs stand apart in the source and are kept apart here.

Key:
[1] = target: EGFR L858R/T790M (H1975 cells) (Homo sapiens (Human), UniProt P00533, L858R/T790M); assay: EGFR signaling immunoblot (1 hr) in H1975 cells; format: cell-based; details: signaling EC50, WT (A431) vs H1975
Procedure: (§1) A431 human epidermoid carcinoma, H1975 human NSCLC and HCC827 human NSCLC adenocarcinoma cells were obtained from the American Type Culture Center (Manassas, Va.). A431 cells were grown in DMEM (Invitrogen, Carlsbad, Calif.) supplemented with 10% FBS (HyClone, South Logan, Utah) and 1% Penicillin-Streptomycin (P/S, Lonza, Walkersville, Md.).
(§2) All primary antibodies were obtained from Cell Signaling (Danvers, Mass.) and used at 1:1000. Secondary antibodies were used at 1:10,000. Goat anti-mouse IgG IRDye 800CW antibody was obtained from LiCor Biosciences (Lincoln, Nebr.) and goat anti-rabbit IgG Alexa Fluor 680 was obtained from Invitrogen.
(§3) Cells were grown in 12-well plates (Corning, Coring, N.Y.) to 90% confluence and then incubated in low-serum (0.1% FBS) media for 16-18 hr. […] A431 cells were then stimulated with 50 ng/ml EGF (Peprotech, Rocky Hill, N.J.) for 15 min. After treatment, cell monolayers were washed with cold PBS (Invitrogen) and immediately lysed by scrapping into 60 uL cold Cell Extraction Buffer (Invitrogen) supplemented with Complete Protease inhibitors (Roche, Indianapolis, Ind.) and PhosphoSTOP (Roche) phosphatase inhibitors.
(§4) Phospho-protein signals were quantitated using Odyssey Infrared Imaging (Li-Cor Biosciences).
Blots were normalized as indicated above. […] Normalized data was fitted using a sigmoidal curve analysis program (Graph Pad Prism version 5) with variable Hill slope to determine the EC50 values.

[2] = system: HCC827 cells (EGFR delE746-A750); assay: Cell proliferation (CellTiter Glo, 72 hr), HCC827; format: cell-based, human; details: for GI50: Homo sapiens; for Ratio WT/mutant: proliferation GI50, WT (A431) vs HCC827
Procedure: as §1
(§5) Growth inhibition (GI50) values were determined by Graph Pad Prism.

[3] = system: H1975 cells (EGFR L858R/T790M); assay: Cell proliferation (CellTiter Glo, 72 hr), H1975; format: cell-based, human; details: for GI50: Homo sapiens, NCI-H1975; for Ratio WT/mutant: proliferation GI50, WT (A431) vs H1975
Procedure: as §1, §5

EGFR T790M/L858R [4] = target: T1, EGFR T790M/L858R (Homo sapiens (Human), UniProt P00533, L858R/T790M); details: for covalent modification of EGFR T790M/L858R: MS analysis
[5] = target: EGFR delE746-A750 (HCC827 cells) (Homo sapiens (Human), UniProt P00533, DEL746-750); assay: EGFR signaling immunoblot (1 hr) in HCC827 cells; format: cell-based; details: signaling EC50, WT (A431) vs HCC827
Procedure: as §1, §2, §3, §4
Blots were normalized as indicated above. […]

A431 cells (WT EGFR) = assay: Cell proliferation (CellTiter Glo, 72 hr), A431; format: cell-based; details: Homo sapiens, A-431
Procedure: as §1, §5

pEGFR in H1975 cells = pEGFR in H1975 cells (Homo sapiens (Human), UniProt P00533, L858R/T790M); details: 500 nM for 1 hr, 0-24 hr
EGFR T790M/L858R [6] = target: T1, EGFR T790M/L858R; assay: Omnia biochemical assay, EGFR-T790M/L858R; details: biochemical IC50, WT EGFR vs T790M/L858R
[7] = HCC827 cells, 72 hr, read-out: HCC827 GI50
[8] = Table 2, HCC827 cells (delE746-A750), read-out: Comparative GI50, HCC827
[9] = H1975 cells, 72 hr, read-out: H1975 GI50
[10] = Table 2, H1975 cells (L858R/T790M), read-out: Comparative GI50, H1975
[11] = A431 cells, 72 hr, read-out: WT EGFR GI50
[12] = Table 2, A431 cells (WT EGFR), read-out: Comparative GI50, A431

Structure (SMILES) | GI50 [2, 7] [nM] | GI50 [3, 9] [nM] | GI50 (A431 cells (WT EGFR); [11]) [nM] | Ratio WT/mutant [2] | Ratio WT/mutant [3] | further results
C=CC(=O)Nc1cccc(Nc2nc(Nc3ccccc3OC)ncc2C(F)(F)F)c1 [Compound I-1, N-(3-(2-(2-methoxyphenylamino)-5-(trifluoromethyl)pyrimidin-4-ylamino)phenyl)acrylamide] | 10 to 100 | 100 to 500 | > 1000 | >20 | >10 | Ratio WT/mutant [1]: >50; GI50 [2, 8]: 10 to 100 nM; GI50 [3, 10]: 100 to 500 nM; time to complete modification of EGFR T790M/L858R (EGFR T790M/L858R [4]; 10-fold excess of compound): ≤ 30 min; mass shift as percent of compound mass (EGFR T790M/L858R [4]; 10-fold excess of compound, MALDI): 113%; covalent modification of EGFR T790M/L858R (EGFR T790M/L858R [4]): completely modifies; Ratio WT/mutant [5]: >50; GI50 (A431 cells (WT EGFR); [12]): > 1000 nM; duration of action after washout (pEGFR inhibition) (pEGFR in H1975 cells): prolonged duration of action
C=CC(=O)Nc1cccc(Oc2nc(Nc3ccccc3OC)ncc2C(F)(F)F)c1 [Compound I-2, N-(3-(2-(2-methoxyphenylamino)-5-(trifluoromethyl)pyrimidin-4-yloxy)phenyl)acrylamide] | 100 to 500 | > 1000 | > 1000 |  |  | covalent modification of EGFR T790M/L858R (EGFR T790M/L858R [4]): covalently modify; duration of action after washout (pEGFR inhibition) (pEGFR in H1975 cells): prolonged duration of action
C=CC(=O)Nc1cccc(Nc2nc(Nc3ccc(OC)c(OC)c3OC)ncc2Cl)c1 [Compound I-4, N-(3-(5-chloro-2-(2,3,4-trimethoxyphenylamino)pyrimidin-4-ylamino)phenyl)acrylamide] | 100 to 500 | 100 to 500 | > 1000 |  |  | 
C=CC(=O)Nc1cccc(Nc2nc(Nc3ccc(OC)c(OC)c3OC)ncc2Br)c1 [Compound I-5, N-(3-(5-bromo-2-(2,3,4-trimethoxyphenylamino)pyrimidin-4-ylamino)phenyl)acrylamide] | 100 to 500 | > 1000 | > 1000 | >20 | >1 | Ratio WT/mutant [1]: >50
C=CC(=O)Nc1cccc(Oc2nc(Nc3ccc(OC)cc3OC)ncc2Br)c1 [Compound I-13, N-(3-(5-bromo-2-(2,4-dimethoxyphenylamino)pyrimidin-4-yloxy)phenyl)acrylamide] | 100 to 500 | 500 to 1000 | > 1000 |  |  | 
C=CC(=O)Nc1cccc(Nc2nc(Nc3cccc(OC)c3OC)ncc2Br)c1 [Compound I-14, N-(3-(5-bromo-2-(2,3-dimethoxyphenylamino)pyrimidin-4-ylamino)phenyl)acrylamide] |  |  |  |  |  | Ratio WT/mutant (EGFR T790M/L858R [6]): >50
C=CC(=O)Nc1cccc(Oc2nc(Nc3ccc(OC)cc3OC)ncc2Cl)c1 [Compound I-15, N-(3-(5-chloro-2-(2,4-dimethoxyphenylamino)pyrimidin-4-yloxy)phenyl)acrylamide] | 100 to 500 | > 1000 | > 1000 |  |  | 
C=CC(=O)Nc1cccc(Oc2nc(Nc3cccc(OC)c3OC)ncc2Cl)c1 [Compound I-17, N-(3-(5-chloro-2-(2,3-dimethoxyphenylamino)pyrimidin-4-yloxy)phenyl)acrylamide] |  |  |  |  |  | Ratio WT/mutant (EGFR T790M/L858R [6]): >35
C=CC(=O)Nc1cccc(Nc2nc(Nc3ccccc3OC)ncc2Cl)c1 [Compound I-18, N-(3-(5-chloro-2-(2-methoxyphenylamino)pyrimidin-4-ylamino)phenyl)acrylamide] | 500 to 1000 | > 1000 | > 1000 | >5 | >1 | 
C=CC(=O)Nc1cccc(Oc2nc(Nc3ccccc3OC)ncc2F)c1 [Compound I-19, N-(3-(5-fluoro-2-(2-methoxyphenylamino)pyrimidin-4-yloxy)phenyl)acrylamide] | 100 to 500 | > 1000 | > 1000 | >10 | >1 | 
C=CC(=O)Nc1cccc(Nc2nc(Nc3ccc(OC)cc3OC)ncc2Br)c1 [Compound I-20, N-(3-(5-bromo-2-(2,4-dimethoxyphenylamino)pyrimidin-4-ylamino)phenyl)acrylamide] | 100 to 500 | > 1000 | > 1000 | >10 | >1 | 
C=CC(=O)Nc1cccc(Nc2nc(Nc3ccc(OC)cc3OC)ncc2Cl)c1 [Compound I-21, N-(3-(5-chloro-2-(2,4-dimethoxyphenylamino)pyrimidin-4-ylamino)phenyl)acrylamide] | 500 to 1000 | > 1000 | > 1000 | >5 | >1 | Ratio WT/mutant [1]: >5
C=CC(=O)Nc1cccc(Nc2nc(Nc3ccccc3OC)ncc2Br)c1 [Compound I-22, N-(3-(5-bromo-2-(2-methoxyphenylamino)pyrimidin-4-ylamino)phenyl)acrylamide] | 500 to 1000 | 500 to 1000 | > 1000 |  |  | 
C=CC(=O)Nc1cccc(Oc2nc(Nc3cccc(OC)c3OC)ncc2C(F)(F)F)c1 [Compound I-23, N-(3-(2-(2,3-dimethoxyphenylamino)-5-(trifluoromethyl)pyrimidin-4-yloxy)phenyl)acrylamide] | > 1000 | > 1000 | > 1000 |  |  | 

Now from value to molecule, other results behind:

GI50 [2, 7] [nM] | GI50 [3, 9] [nM] | GI50 (A431 cells (WT EGFR); [11]) [nM] | Structure (SMILES) | Ratio WT/mutant [2] | Ratio WT/mutant [3] | further results
500 to 1000 | 500 to 1000 | > 1000 | C=CC(=O)Nc1cccc(Oc2nc(Nc3cccc(OC)c3OC)ncc2Br)c1 [Compound I-6, N-(3-(5-bromo-2-(2,3-dimethoxyphenylamino)pyrimidin-4-yloxy)phenyl)acrylamide] | >1 | >1 | 
100 to 500 | > 1000 | > 1000 | C=CC(=O)Nc1cccc(Oc2nc(Nc3ccc(OC)c(OC)c3OC)ncc2Br)c1 [Compound I-8, N-(3-(5-bromo-2-(2,3,4-trimethoxyphenylamino)pyrimidin-4-yloxy)phenyl)acrylamide] |  |  | 
100 to 500 | 100 to 500 | > 1000 | C=CC(=O)Nc1cccc(Oc2nc(Nc3ccc(OC)cc3OC)ncc2C(F)(F)F)c1 [Compound I-9, N-(3-(2-(2,4-dimethoxyphenylamino)-5-(trifluoromethyl)pyrimidin-4-yloxy)phenyl)acrylamide] |  |  | 
100 to 500 | 100 to 500 | > 1000 | C=CC(=O)Nc1cccc(Oc2nc(Nc3ccc(OC)c(OC)c3OC)ncc2C(F)(F)F)c1 [Compound I-10, N-(3-(5-(trifluoromethyl)-2-(2,3,4-trimethoxyphenylamino)pyrimidin-4-yloxy)phenyl)acrylamide] | >10 | >10 | Ratio WT/mutant [1]: >50
10 to 100 | 100 to 500 | > 1000 | C=CC(=O)Nc1cccc(Nc2nc(Nc3ccc(OC)c(OC)c3OC)ncc2C(F)(F)F)c1 [Compound I-11, N-(3-(5-(trifluoromethyl)-2-(2,3,4-trimethoxyphenylamino)pyrimidin-4-ylamino)phenyl)acrylamide] | >40 | >10 | Ratio WT/mutant [1]: >50; GI50 [2, 8]: 10 to 100 nM; GI50 [3, 10]: 100 to 500 nM; Ratio WT/mutant [5]: >5; GI50 (A431 cells (WT EGFR); [12]): > 1000 nM
500 to 1000 | > 1000 | > 1000 | C=CC(=O)Nc1cccc(Nc2nc(Nc3cccc(OC)c3OC)ncc2C(F)(F)F)c1 [Compound I-16, N-(3-(2-(2,3-dimethoxyphenylamino)-5-(trifluoromethyl)pyrimidin-4-ylamino)phenyl)acrylamide] |  |  | 
